Reference: US20160000762A1, “IMPROVING COGNITIVE FUNCTION” (THE REGENTS OF THE UNIVERSITY OF CALIFORNIA, priority 2013, published 2016)

Columns and labels:
dendritic spines = test: Golgi staining, dendritic spines of wild-type mice; assay type: in vivo; conditions: 30 mg/kg, 2 weeks
Procedure: Golgi staining and morphological analysis of dendritic spines. To analyze dendritic spine density and morphology in brain, FD RAPID GOLGISTAIN KIT™ (FD NeuroTechnologies, Ellicott City, Md., USA) was used. Dissected mouse brains were immersed in Solution A and B for 2 weeks in dark conditions at room temperature and transferred into Solution C for 24 h at 4° C. Brains were sliced using a VT1000S Vibratome (Leica, Bannockburn, Ill., USA) at 150 μm thickness. Dendritic images were acquired by Axioplan 2 (Zeiss, Oberkochen, Germany) under brightfield microscopy. Spine width, length, and linear density of cortical layers II/III and CA1 of hippocampus were measured using Scion image software (Scion Corporation, Frederick, Md., USA). Images were coded, and dendritic spines counted in a blinded manner. Spines from 0.2 to 2 μm in length were included for analysis. All morphological analysis was done blind to experimental conditions.

[1] = Tolerability of daily i.p. injections with necropsy; assay type: in vivo, wild-type mice; conditions: ≦50 mg/kg i.p. daily, 16 days
AMPAR and NMDAR subunits = test: Slice surface biotinylation, AMPAR and NMDAR subunits in CA1 slices; assay type: in vivo, mice
Procedure: Slice surface biotinylation. Hippocampal slices (400 μm thick) were prepared as described above. CA3 and DG regions were cut away after the slice preparation to isolate CA1. After 30 min recovery at room temperature, the slices were transferred to 30° C. for additional 30 min recovery. The slices were then transferred to ice-cold ACSF for 10 min, and subsequently to ice-cold ACSF containing 1 mg/ml biotin (EZ-Link Sulfo-NHS-SS-Biotin, Pierce) saturated with 5% CO2/95% O2 for 15 min. The slices were then washed in tris-buffered saline (TBS: 50 mM Tris, 0.9% NaCl, pH 7.4) containing 100 mM glycine 5 times for 1 min each before homogenized in ice-cold 0.2% SDS/1% Triton X-100 IPB (20 mM Na3PO4, 150 mM NaCl, 10 mM EDTA, 10 mM EGTA, 10 mM Na4P2O7, 50 mM NaF, and 1 mM Na3VO4, pH 7.4; with […] okadaic acid and 10 KIU/ml aprotinin) by 30 gentle strokes using glass-Teflon tissue homogenizers (Pyrex). The homogenates were centrifuged for 10 min at 13,200×g, 4° C. Protein concentration of the supernatant was normalized to 0.6-1.5 mg/ml. Some of the supernatants were saved as inputs, and the remaining supernatant was mixed with neutravidin slurry [1:1 in 1% Triton X-100 IPB (TX-IPB)] and rotated overnight at 4° C. The neutravidin beads were isolated by brief centrifugation at 1,000×g, and washed 3×1% TX-IPB, 3×1% TX-IPB+500 mM NaCl, followed by 2×1% TX-IPB. The biotinylated surface proteins were then eluded from the neutravidin beads by rotating at room temperature for 15 min in gel sample buffer with 2 mM DTT. The input (total homogenate) and biotinylated samples (surface fraction) were run on separate gels, and processed for immunoblot analysis using GluA1 (sc-55509, Santa Cruz), GluA2/3 (07-598, Upstate/Millipore), GluN1 (a gift from Dr. R. Huganir), GluN2A (07-632, Upstate/Millipore), and GluN2B (71-8600, Invitrogen) antibodies. NMDAR subunit blots were developed using enhanced chemifluorescence substrate (ECF™ substrate, Amersham). AMPAR blots were probed simultaneously with GluR1 and GluR2/3 antibodies followed by second antibodies linked to Cy5 and Cy3. All blots were scanned using TYPHOON™ 9400 (GE Health), and quantified using Image Quant TL software (GE Health). The signal of each sample on a blot was normalized to the average signal from the control group to obtain the % of average control values, which were compared across groups using unpaired Student's t-test.
To test whether the increase in functional excitatory synapses is via cell surface recruitment of glutamate receptors, we performed steady-state surface biotinylation using acute hippocampal slices obtained from mice injected with BTA-EG4 (30 mg/kg) or control vehicle for 2 weeks. Both the cell surface and total levels of major AMPAR subunits GluA1 and GluA2, as well as NMDAR subunits GluN1, GluN2A and GluN2B, were quantified.

In the case of BTA-EG4, the dendritic spine density (dendritic spines; CA1 region of the hippocampus) is reported as “significantly increased”, the dendritic spine density (dendritic spines; cortical layers II/III) is reported as “significantly increased” and the “spine morphology (spine head width and spine length)” value (dendritic spines; hippocampus CA1 and cortical layers II/III) is reported as “did not alter”. The necropsy findings [1] was “no adverse effects on major organs”, the “tolerability of daily injections” value [1] was “well tolerated” and the “cell surface or total expression of GluA1, GluA2, GluN1, GluN2A, GluN2B” value (AMPAR and NMDAR subunits; 30 mg/kg, 2 weeks) was “no significant change”. The GluA1/β-actin ratio (AMPAR and NMDAR subunits; total homogenate, CTRL=0.96±0.10) was 1.06±0.12, the GluA2/β-actin ratio (AMPAR and NMDAR subunits; total homogenate, CTRL=0.98±0.09) was 1.27±0.14 and the GluN1/β-actin ratio (AMPAR and NMDAR subunits; total homogenate, CTRL=0.98±0.12) was 1.27±0.05. It also gave a GluN2B/β-actin ratio (AMPAR and NMDAR subunits; total homogenate, CTRL=1.02±0.11) of 1.33±0.14 and a GluN2A/β-actin ratio (AMPAR and NMDAR subunits; total homogenate, CTRL=1.03±0.08) of 1.04±0.14.
